The values that follow are results of earlier work, collected in patent US20070219250A1, “Pharmaceutical Compositions of Nateglinide” (priority 2003, published 2007).

Take `CC(C)[C@H]1CC[C@H](C(=O)N[C@H](Cc2ccccc2)C(=O)O)CC1` [Nateglinide]: the Solubility in water entry is “insoluble”.
